Assays:
PK40 (ERK2) = molecular target: T1, PK40 (ERK2) (Homo sapiens, UniProt P28482); test: PK40(ERK2) kinase inhibition assay; type: biochemical; settings: 0.25 mM ATP, myelin basic protein substrate
T1 construct: made in house; host or cells: E. coli BL21 pLysS (printed 'B121pLysS'), pET-14b vector
Description: Preparation of ERK2: Recombinant human ERK2 with a N-terminal histidine (his) tag was prepared as follows: An ERK2 cDNA clone was amplified from a human frontal cortex library by PCR with primers matching the published human sequence [Gonzales F. A. et al, FEBS Lett. 304, 170-178 (1992)]. The histidine tag was introduced by site-directed mutagenesis. The cDNA was cloned into a pET-14b (Novagen) vector and transfected into the E. coli lysogen strain B121pLysS. Single colony transformants were grown in LB medium containing […] chloramphenicol to maintain pLysS and […] to an O.D.600 OF 0.6. The culture was then induced with 0.4 mM IPTG for 4 hours. The expressed ERK2 protein was then analyzed on a 10% SDS PAGE by both coomassie blue staining and anti-ERK Western blotting. […]
Enzyme, substrate and inhibitor were preincubated for 5-10 min at 4° C. in assay buffers containing a final concentration of 2% DMSO before initiating the reaction with 0.25 mM γ^2P-ATP. […] The filtermats were washed twice for several hours with TCA/PPA until all background radioactivity was removed. Precipitable counts were quantitated directly on the filtermat with a microbeta scintillation counter system (Wallac-Pharmacia). Inhibitor data were subjected to curve fitting and IC50 values were calculated from these curves using the GraphIt program.

PKA = molecular target: T2, PKA (Bos taurus, UniProt P00517); test: PKA catalytic subunit inhibition assay; type: biochemical, bovine; settings: footnote a) on the CII value: partial inhibition only
T2 construct: The catalytic subunit of bovine heart PKA was obtained commercially from Sigma; purchased Sigma; host or cells: bovine heart
Description: Preparation of cAMP-dependent Kinase: The catalytic subunit of bovine heart PKA was obtained commercially from Sigma.
The catalytic subunit of PKA was assayed in 50 μl 25 mM HEPES, pH 7.0, 10 mM MgCl2, 1 mM EDTA, 1 mM DTT, using 70 ng PKA and 0.1 mg/mL human recombinant tau protein as a substrate.
Enzyme, substrate and inhibitor were preincubated for 5-10 min at 4° C. in assay buffers containing a final concentration of 2% DMSO before initiating the reaction with 0.25 mM γ^2P-ATP. Samples were incubated for 30 min at 37° C. and reactions were terminated with 10% trichloracetic acid/2% sodium pyrophosphate (TCA/PPA), followed by filtration over a glass fiber filtermat (type A) with a cell harvester (Tomtec). The filtermats were washed twice for several hours with TCA/PPA until all background radioactivity was removed. Precipitable counts were quantitated directly on the filtermat with a microbeta scintillation counter system (Wallac-Pharmacia). Inhibitor data were subjected to curve fitting and IC50 values were calculated from these curves using the GraphIt program.

T1 sequence (P28482 whole entry): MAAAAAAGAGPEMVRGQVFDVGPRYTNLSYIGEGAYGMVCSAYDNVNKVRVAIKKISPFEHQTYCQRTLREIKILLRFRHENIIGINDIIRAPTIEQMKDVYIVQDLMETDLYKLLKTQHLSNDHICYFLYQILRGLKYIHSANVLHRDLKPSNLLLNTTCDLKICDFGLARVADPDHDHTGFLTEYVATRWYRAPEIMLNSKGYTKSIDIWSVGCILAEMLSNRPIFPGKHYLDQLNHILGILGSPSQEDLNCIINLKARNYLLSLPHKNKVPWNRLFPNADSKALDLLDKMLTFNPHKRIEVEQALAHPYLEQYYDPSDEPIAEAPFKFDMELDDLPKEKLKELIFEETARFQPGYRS

Compound	IC50 (PK40 (ERK2))	IC50 (PKA)
CNC(=O)[C@]1(O)CC2CC1n1c3ccccc3c3c4c(c5c6ccccc6n2c5c31)C(=O)NC4=O (stereo partly drawn) [CII, 9,12-Methano-1H-diindolo[1,2,3-fg:3′,2′,1′-kl]pyrrolo[3,4-I][1,6] benzodiazocine-10-carboxamide, 2,3,9,10,11,12-hexahydro-10-hydroxy-N-methyl-1,3-dioxo-(9α,10β,12α)]	44 nM	650 nM
COC(=O)[C@@]1(O)C[C@H]2C[C@@H]1n1c3ccccc3c3c4c(c5c6ccccc6n2c5c31)C(=O)NC4=O (relative stereo) [CIII, 9,12-Methano-1H-diindolo[1,2,3-fg:3′,2′,1′-kl]pyrrolo[3,4-I][1,6] benzodiazocine-10-carboxylic acid, 2,3,9,10,11,12-hexahydro-10-hydroxy-1,3-dioxomethyl ester, (9α,10β,12α)]	> 30000 nM	> 100000 nM

Source: patent US6541468B1, “Indolocarbazole derivatives useful for the treatment of neurodegenerative diseases and cancer” (Bayer Corporation, priority 1998, dated 2003)
